Assay results: patent US10806164B2 (priority 2016, dated 2020)
Marks after values point to notes of the source that are not given here.

Experiments:
[1] = rat, in vivo
[2] = rat, in vivo; remark: listed apart in the source

## Deoxynivalenol [DON]
[1]
  Effect on consumption of food: affected the consumption of food
  Food consumption Means ± standard error: 569 ± 19.1 ^b
  Food consumption from 0 to 7 days: 98 ± 4.75 ^a
  Food consumption from 7 to 14 days: 109 ± 4.84 ^a
  Food consumption from 14 to 21 days: 109 ± 5.41 ^b
  Food consumption from 21 to 28 days: 121 ± 4.83 ^b
  Food consumption from 28 to 35 days: 132 ± 3.10 ^b
  Food conversion Means ± standard error: 5.22 ± 0.195 ^b
  Gain of weight from 0 to 7 days: 24 ± 2.45 ^b
  Gain of weight from 7 to 14 days: 24 ± 3.04 ^a
  Gain of weight from 14 to 21 days: 21 ± 2.92 ^a
  Gain of weight from 21 to 28 days: 13 ± 3.89 ^b
  Gain of weight from 28 to 35 days: 27 ± 3.63 ^a
  Weight gain Means ± standard error: 109 ± 6.61 ^b g
[2]
  Consumption food Means ± Standard error: 511 ± 5.71 ^b
